This is an account of results in patent US7256187B2, “Rifamycin C-11 oxime derivatives effective against drug-resistant microbes” (Cumbre Pharmaceuticals Inc., priority 2004, dated 2007).

Holding throughout (format): cell-based
Test [1] deals with Mycobacterium smegmatis ATCC700084. The test can be described thus: MIC, microbroth dilution. The conditions noted are these: Mycolicibacterium smegmatis; Mycobacterium smegmatis ATCC700084, rifS; read-out: Antimicrobial activity (MIC). For orientation: In broth dilution the organism is exposed to a series of concentrations in liquid medium.
Test [2] concerns Escherichia coli ATCC25922. The test can be described thus: MIC, microbroth dilution. Conditions: Escherichia coli ATCC25922, rifS; read-out: Antimicrobial activity (MIC).
The subject of test [3] is Enterococcus faecalis ATCC29212. The test is described as follows: MIC, microbroth dilution. The conditions noted are these: Enterococcus faecalis ATCC29212, rifS; read-out: Antimicrobial activity (MIC).
For test [4], the system named is Streptococcus pyogenes ATCC19615. The test is described as follows: MIC, microbroth dilution. Conditions: Streptococcus pyogenes ATCC19615, rifS; read-out: Antimicrobial activity (MIC).
Test [5] concerns Streptococcus pneumoniae ATCC6303. The test is described as follows: MIC, microbroth dilution. Conditions: Streptococcus pneumoniae ATCC6303, rifS; read-out: Antimicrobial activity (MIC).
In test [6] the test system is Staphylococcus aureus ATCC29213 rpoB^D417Y. The test can be described thus: microbe, parasite or virus in culture. Conditions: Staphylococcus aureus ATCC29213 rpoB^D417Y, rifR; read-out: Antimicrobial activity (MIC). As for the experimental part:
(§1) Representative compounds were assayed for antimicrobial activity as follows: Minimum Inhibitory Concentrations (“MICs”) were determined by the microbroth dilution method as per NCCLS guidelines (National Committee for Clinical Laboratory Standards. 2000. Methods for dilution antimicrobial susceptibility tests for bacteria that grow aerobically, 5th ed. M7-A5. National Committee for Clinical Laboratory Standards, Wayne, Pa.), except that all growth incubations were conducted at 37° C. Bacterial cultures were tested in the following bacteriological media: S. aureus, S. epidermidis, and E. coli in Cation-Adjusted Mueller-Hinton Broth, S. pneumoniae in THY Broth supplemented with 1 mg/mL catalase under 5% CO2 atmosphere, S. pyogenes in THY Broth, E. faecalis in BHI Broth, H. influenzae in BHI Broth supplemented with 0.75 μL of 1 mg/mL NAD and 150 μL of 1 mg/ml hematin per 5 mL, and M. smegmatis in Middlebrook Broth plus ADC Enrichment.
(§2) S. aureus ATCC 29213 RpoB^H418Y is a rifampin-resistant strain with a mutation in the RpoB gene of RNA polymerase. […] S. aureus EN1252a gyrA^S84L grlA^S80F is a quinolone-resistant strain due to double gene mutations of DNA gyrase and topoisomerase IV.

In test [7] the test system is Staphylococcus aureus EN1252a gyrA^S84L grlA^S80F. The test is described as follows: microbe, parasite or virus in culture. The conditions noted are these: Staphylococcus aureus EN1252a gyrA^S84L grlA^S80F, cipR; read-out: Antimicrobial activity (MIC). Here is the method:
as §1, §2

Test [8] deals with Staphylococcus aureus ATCC29213 rpoB^H418Y. The test can be described thus: microbe, parasite or virus in culture. Conditions: Staphylococcus aureus ATCC29213 rpoB^H418Y, rifR; read-out: Antimicrobial activity (MIC). As for the experimental part: as §1, §2
Test [9] deals with Haemophilus influenzae ATCC10211. The test can be described thus: MIC, microbroth dilution. The conditions noted are these: Haemophilus influenzae ATCC10211, rifS; read-out: Antimicrobial activity (MIC).
Test [10] deals with Staphylococcus epidermidis ATCC12228. The test can be described thus: MIC, microbroth dilution. Conditions: Staphylococcus epidermidis ATCC12228, rifS; read-out: Antimicrobial activity (MIC).
The test system of test [11] is Staphylococcus aureus ATCC29213. The test can be described thus: MIC, microbroth dilution. The conditions noted are these: Staphylococcus aureus ATCC29213, rifS; read-out: Antimicrobial activity (MIC).

Converted amounts (≈) assume the structure as drawn.

Regarding `CO[C@H]1/C=C/O[C@@]2(C)Oc3c(C)c(O)c4c(c3/C2=N/OCC(=O)N2CCN(c3cc5c(cc3F)c(=O)c(C(=O)O)cn5C3CC3)CC2)C(=O)C(N2CCOCC2)=C(NC(=O)/C(C)=C\C=C\[C@H](C)[C@H](O)[C@@H](C)[C@@H](O)[C@@H](C)[C@H](OC(C)=O)[C@@H]1C)C4=O` [Example 29, 11-Deoxy-3-(morpholin-4-yl)-11-{2-oxo-2-[4-(3-carboxy-1-cyclopropl-6-fluoro-4-oxo-1,4-dihydroquinolin-7-yl)piperazin-1-yl]ethoxyimino}rifamycin S], the MIC in [1] lay in the range of 0.5 to 64 µg/mL (≈ 0.428 to 54.8 µM); in [2], 0.125 to 8 µg/mL (≈ 0.107 to 6.85 µM); in test [3], 2 to 32 µg/mL (≈ 1.71 to 27.4 µM); in test [4] it was 0.0005 to 0.063 µg/mL (≈ 0.000428 to 0.054 µM); in test [5], 0.0002 to 0.125 µg/mL (≈ 0.000171 to 0.107 µM); in [6], 0.25 to 32 µg/mL (≈ 0.214 to 27.4 µM). Moreover, the MIC in test [7] lay in the range of 0.004 to 0.5 µg/mL (≈ 0.00343 to 0.428 µM); in test [8], 0.125 to 16 µg/mL (≈ 0.107 to 13.7 µM); in test [9] it was 0.03 to 2 µg/mL (≈ 0.0257 to 1.71 µM); in test [10] it was 0.0005 to 0.063 µg/mL (≈ 0.000428 to 0.054 µM); in [11], 0.004 to 0.5 µg/mL (≈ 0.00343 to 0.428 µM).

Regarding `COc1c(N2CCN(C(=O)CO/N=C3/c4c5c(C)c(O)c6c4C(=O)C(N4CCOCC4)=C(NC(=O)/C(C)=C\C=C\[C@H](C)[C@H](O)[C@@H](C)[C@@H](O)[C@@H](C)[C@H](OC(C)=O)[C@H](C)[C@@H](OC)/C=C/O[C@@]3(C)O5)C6=O)C(C)C2)c(F)cc2c(=O)c(C(=O)O)cn(C3CC3)c12` (stereo partly shown) [Example 30, 11-Deoxy-3-(morpholin-4-yl)-11-{2-oxo-2-[4-(3-carboxy-1-cyclopropyl-6-fluoro-8-methoxy-4-oxo-1,4-dihydroquinolin-7-yl)-2-methylpiperazin-1-yl]ethoxyimino}rifamycin S], the MIC in test [1] was 0.5 to 64 µg/mL (≈ 0.413 to 52.8 µM); in [2], 0.125 to 8 µg/mL (≈ 0.103 to 6.6 µM); in test [3], 2 to 32 µg/mL (≈ 1.65 to 26.4 µM); in test [4] it was 0.0005 to 0.063 µg/mL (≈ 0.000413 to 0.052 µM); in test [5] it was 0.0002 to 0.125 µg/mL (≈ 0.000165 to 0.103 µM); in test [6], 0.25 to 32 µg/mL (≈ 0.206 to 26.4 µM). Besides, the MIC lay in the range of 0.004 to 0.5 µg/mL (≈ 0.0033 to 0.413 µM) in test [7]; 0.125 to 16 µg/mL (≈ 0.103 to 13.2 µM) in [8]; 0.03 to 2 µg/mL (≈ 0.0248 to 1.65 µM) in test [9]; 0.0005 to 0.063 µg/mL (≈ 0.000413 to 0.052 µM) in [10]; 0.004 to 0.5 µg/mL (≈ 0.0033 to 0.413 µM) in test [11].

Turning to `CO[C@H]1/C=C/O[C@@]2(C)Oc3c(C)c(O)c4c(c3/C2=N/O)C(=O)C(N2CCN(c3cc5c(cc3F)c(=O)c(C(=O)O)cn5C3CC3)CC2)=C(NC(=O)/C(C)=C\C=C\[C@H](C)[C@H](O)[C@@H](C)[C@@H](O)[C@@H](C)[C@H](OC(C)=O)[C@@H]1C)C4=O` [Example 33, 11-Deoxy-3-[4-(3-carboxy-1-cyclopropyl-6-fluoro-4-oxo-1,4-dihydroquinolin-7-yl)piperazin-1-yl]-11-hydroxyiminorifamycin S], the MIC in test [1] lay in the range of 0.5 to 64 µg/mL (≈ 0.481 to 61.5 µM); in [2] it was 0.125 to 8 µg/mL (≈ 0.12 to 7.69 µM); in [3] it was 2 to 32 µg/mL (≈ 1.92 to 30.8 µM); in test [4], 0.0005 to 0.063 µg/mL (≈ 0.000481 to 0.0606 µM); in [5], 0.0002 to 0.125 µg/mL (≈ 0.000192 to 0.12 µM); in [6] it was 0.25 to 32 µg/mL (≈ 0.24 to 30.8 µM). Also, the MIC in [7] lay within 0.004 to 0.5 µg/mL (≈ 0.00385 to 0.481 µM); in test [8] it was 0.125 to 16 µg/mL (≈ 0.12 to 15.4 µM); in test [9], 0.03 to 2 µg/mL (≈ 0.0288 to 1.92 µM); in test [10] it was 0.0005 to 0.063 µg/mL (≈ 0.000481 to 0.0606 µM); in [11] it was 0.004 to 0.5 µg/mL (≈ 0.00385 to 0.481 µM).

`CO[C@H]1/C=C/O[C@@]2(C)Oc3c(C)c(O)c4c(c3/C2=N/O)C(=O)C(N2CCOCC2)=C(NC(=O)/C(C)=C\C=C\[C@H](C)[C@H](O)[C@@H](C)[C@@H](O)[C@@H](C)[C@H](OC(C)=O)[C@@H]1C)C4=O` [Example 34, 11-Deoxy-3-(morpholin-4-yl)-11-hydroxyiminorifamycin S]: the MIC in test [1] lay within 0.5 to 64 µg/mL (≈ 0.628 to 80.4 µM); in test [2] it was 0.125 to 8 µg/mL (≈ 0.157 to 10.1 µM); in [3] it was 2 to 32 µg/mL (≈ 2.51 to 40.2 µM); in test [4], 0.0005 to 0.063 µg/mL (≈ 0.000628 to 0.0792 µM); in [5], 0.0002 to 0.125 µg/mL (≈ 0.000251 to 0.157 µM); in [6] it was 0.25 to 32 µg/mL (≈ 0.314 to 40.2 µM). For the same compound, the MIC in test [7] fell in the range of 0.004 to 0.5 µg/mL (≈ 0.00503 to 0.628 µM); in [8], 0.125 to 16 µg/mL (≈ 0.157 to 20.1 µM); in test [9] it was 0.03 to 2 µg/mL (≈ 0.0377 to 2.51 µM); in [10], 0.0005 to 0.063 µg/mL (≈ 0.000628 to 0.0792 µM); in test [11] it was 0.004 to 0.5 µg/mL (≈ 0.00503 to 0.628 µM).

As to `CO/N=C1/c2c3c(C)c(O)c4c2C(=O)C(N2CCOCC2)=C(NC(=O)/C(C)=C\C=C\[C@H](C)[C@H](O)[C@@H](C)[C@@H](O)[C@@H](C)[C@H](OC(C)=O)[C@H](C)[C@@H](OC)/C=C/O[C@@]1(C)O3)C4=O` [Example 35, 11-Deoxy-3-(morpholin-4-yl)-11-methoxyiminorifamycin S], the MIC in test [1] lay within 0.5 to 64 µg/mL (≈ 0.617 to 79 µM); in test [2], 0.125 to 8 µg/mL (≈ 0.154 to 9.88 µM); in test [3], 2 to 32 µg/mL (≈ 2.47 to 39.5 µM); in test [4], 0.0005 to 0.063 µg/mL (≈ 0.000617 to 0.0778 µM); in [5] it was 0.0002 to 0.125 µg/mL (≈ 0.000247 to 0.154 µM); in test [6], 0.25 to 32 µg/mL (≈ 0.309 to 39.5 µM). In addition, the MIC in test [7] was in the range of 0.004 to 0.5 µg/mL (≈ 0.00494 to 0.617 µM); in [8], 0.125 to 16 µg/mL (≈ 0.154 to 19.8 µM); in test [9], 0.03 to 2 µg/mL (≈ 0.037 to 2.47 µM); in test [10] it was 0.0005 to 0.063 µg/mL (≈ 0.000617 to 0.0778 µM); in test [11], 0.004 to 0.5 µg/mL (≈ 0.00494 to 0.617 µM).
